ChEMBL document CHEMBL1143642, “Preparation of 3-spirocyclic indolin-2-ones as ligands for the ORL-1 receptor” (Bioorg Med Chem Lett, 2005)

What was measured:
Assay type in all cases: cell-based
[1] = target: T1, Nociceptin receptor (Homo sapiens, UniProt P41146); assay: Binding affinity determined by the ability to compete with [125I]-Tyr14- nociceptin from binding to human opiate receptor-like 1 expressed in HEK293 cells
[2] = target: Delta-type opioid receptor (Homo sapiens, UniProt P41143); assay: Binding affinity against human opioid receptor delta 1 expressed in HEK293 cells using [3H]DDPDE radioligand
[3] = target: T1, Nociceptin receptor; assay: Ability to inhibit calcium flux in HEK293 cells overexpresses human opiate receptor-like 1 in the presence of 100 nM nociceptin
[4] = target: Kappa-type opioid receptor (Homo sapiens, UniProt P41145); assay: Binding affinity against human opioid receptor kappa 1 expressed in HEK293 cells using 3H-U69,593 radioligand
[5] = target: Mu-type opioid receptor (Homo sapiens, UniProt P35372); assay: Binding affinity against human opioid receptor mu 1 expressed in HEK293 cells using [3H]DAMGO radioligand
Mu-type opioid receptor, sequence (P35372 whole entry): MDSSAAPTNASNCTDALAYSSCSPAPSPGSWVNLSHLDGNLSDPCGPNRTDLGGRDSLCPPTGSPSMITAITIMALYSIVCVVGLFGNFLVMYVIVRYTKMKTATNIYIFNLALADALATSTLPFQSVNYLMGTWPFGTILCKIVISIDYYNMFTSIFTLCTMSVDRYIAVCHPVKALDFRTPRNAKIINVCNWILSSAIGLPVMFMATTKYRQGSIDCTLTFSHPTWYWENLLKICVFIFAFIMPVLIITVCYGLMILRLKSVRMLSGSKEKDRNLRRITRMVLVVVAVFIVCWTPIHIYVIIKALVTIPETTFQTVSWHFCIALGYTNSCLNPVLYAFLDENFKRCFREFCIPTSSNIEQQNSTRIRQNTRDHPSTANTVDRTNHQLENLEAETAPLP

T1 sequence (P41146 whole entry): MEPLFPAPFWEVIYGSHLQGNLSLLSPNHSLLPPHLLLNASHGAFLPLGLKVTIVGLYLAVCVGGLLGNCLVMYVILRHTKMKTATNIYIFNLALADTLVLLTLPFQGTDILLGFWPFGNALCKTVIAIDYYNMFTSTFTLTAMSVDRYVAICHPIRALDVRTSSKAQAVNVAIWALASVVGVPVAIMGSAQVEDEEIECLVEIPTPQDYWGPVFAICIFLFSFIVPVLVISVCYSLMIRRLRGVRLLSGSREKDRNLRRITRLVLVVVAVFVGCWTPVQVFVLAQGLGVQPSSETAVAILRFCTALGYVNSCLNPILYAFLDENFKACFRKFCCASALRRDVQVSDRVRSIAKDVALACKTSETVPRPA
Delta-type opioid receptor, sequence (P41143 whole entry): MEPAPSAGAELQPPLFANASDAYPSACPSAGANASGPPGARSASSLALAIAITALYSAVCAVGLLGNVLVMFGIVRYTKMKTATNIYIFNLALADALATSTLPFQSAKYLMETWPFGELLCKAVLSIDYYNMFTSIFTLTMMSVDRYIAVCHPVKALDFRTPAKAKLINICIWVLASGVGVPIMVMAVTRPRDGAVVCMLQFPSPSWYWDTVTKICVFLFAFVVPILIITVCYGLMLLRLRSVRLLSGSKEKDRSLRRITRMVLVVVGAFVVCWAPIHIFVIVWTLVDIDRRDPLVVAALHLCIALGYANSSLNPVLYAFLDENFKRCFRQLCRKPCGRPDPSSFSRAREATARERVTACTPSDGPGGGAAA
Kappa-type opioid receptor, sequence (P41145 whole entry): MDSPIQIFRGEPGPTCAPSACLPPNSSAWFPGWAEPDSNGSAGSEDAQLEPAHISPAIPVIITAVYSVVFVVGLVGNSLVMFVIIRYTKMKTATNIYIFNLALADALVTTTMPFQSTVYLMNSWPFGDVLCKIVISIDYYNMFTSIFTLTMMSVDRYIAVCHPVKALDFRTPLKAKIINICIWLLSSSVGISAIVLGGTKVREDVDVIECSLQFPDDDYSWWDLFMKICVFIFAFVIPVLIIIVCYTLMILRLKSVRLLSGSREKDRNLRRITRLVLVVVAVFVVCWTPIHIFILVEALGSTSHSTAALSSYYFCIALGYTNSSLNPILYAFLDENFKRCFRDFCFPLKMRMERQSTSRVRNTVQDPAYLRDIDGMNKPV

Question: Which IC50 [1] does the source give for CCCCCCC(CCCC)CN1CCC2(CC1)C(=O)N(CC(=O)OC)c1ccccc12 (centres undefined) here?
Answer: Its IC50 is 10 µM.

Question: With Cc1ccc2c(c1)C1(CCN(CC3CCCCCCC3)CC1)C(=O)N2C as the compound, how does the IC50 [2] read?
Answer: The IC50 was 9.4 µM.

Question: With CCN(Cc1ccc(C)cc1)CC(O)CN1C(=O)C2(CCN(CC3CCCCCCC3)CC2)c2ccccc21 (centres undefined) as the compound, how does the IC50 [2] read?
Answer: Its IC50 is over 10 µM.

Question: How did the IC50 [1] turn out when COC(=O)CN1C(=O)C2(CCN(Cc3ccc(-c4ccccc4)cc3)CC2)c2ccccc21 was run?
Answer: The IC50 was 10 µM.

Question: For O=C(O)CN1C(=O)C2(CCN(CC3CCCCCCC3)CC2)c2ccccc21, which IC50 ([1]; hek293) is on record?
Answer: Its IC50 is under 10 µM.

Question: With O=C1N(Cc2ccccc2)c2ccccc2C12CCN(CC1CCCCCCC1)CC2 as the compound, how does the IC50 [2] read?
Answer: The IC50 was over 10 µM.

Question: With CN1C(=O)C2(CCN(CC3CCCCCCC3)CC2)c2ccccc21 as the compound, how does the IC50 [2] read?
Answer: The IC50 was over 10 µM.

Question: With O=C1Nc2ccccc2C12CCN(CC1CCCCCCC1)CC2 as the compound, how does the inhibition [3] read?
Answer: Its inhibition is 45%.

Question: And the IC50 [2]?
Answer: Its IC50 is over 10 µM.

Question: CC(C)c1ccc2c(c1)C1(CCN(CC3CCCCCCC3)CC1)C(=O)N2C was tested. Which IC50 [2] did it give?
Answer: Its IC50 is over 10 µM.

Question: COC(=O)CN1C(=O)C2(CCN(CC3CCCCCCC3)CC2)c2ccccc21 was tested. Which IC50 [2] did it give?
Answer: The IC50 was over 10 µM.

Question: COC(=O)CN1C(=O)C2(CCN(C(=O)CCC(=O)c3ccccc3)CC2)c2ccccc21 was tested. Which IC50 [1] did it give?
Answer: The IC50 was over 10 µM.

Question: Cc1ccc2c(c1)N(C)C(=O)C21CCN(CC2CCCCCCC2)CC1 was tested. Which inhibition [3] did it give?
Answer: Its inhibition is 48%.

Question: How did the IC50 [1] turn out when COC(=O)CN1C(=O)C2(CCN(Cc3ccccc3-c3ccsc3)CC2)c2ccccc21 was run?
Answer: The IC50 was 10 µM.

Question: CCN1C(=O)C2(CCN(CC3CCCCCCC3)CC2)c2ccc(OC)cc21 was tested. Which IC50 [2] did it give?
Answer: Its IC50 is over 10 µM.

Question: For O=C1N(CC(O)CNCCN2CCOCC2)c2ccccc2C12CCN(CC1CCCCCCC1)CC2 (centres undefined), which IC50 [2] is on record?
Answer: The IC50 was over 10 µM.

Question: How did the IC50 [1] turn out when COC(=O)CN1C(=O)C2(CCN(C(=O)C3CCC(OC)CC3)CC2)c2ccccc21 (centres undefined) was run?
Answer: Its IC50 is over 10 µM.

Question: COc1ccc2c(c1)N(C)C(=O)C21CCN(CC2CCCCCCC2)CC1 was tested. Which IC50 [2] did it give?
Answer: The IC50 was over 10 µM.

Question: O=C1N(CC2CO2)c2ccccc2C12CCN(CC1CCCCCCC1)CC2 (centres undefined) was tested. Which IC50 [2] did it give?
Answer: Its IC50 is over 10 µM.

Question: How did the inhibition [3] turn out when CN1C(=O)C2(CCN(CC3CCCCCCC3)CC2)c2cc(F)ccc21 was run?
Answer: The inhibition was 66%.

Question: For COC(=O)CN1C(=O)C2(CCN(C(C)c3ccccc3)CC2)c2ccccc21 (centres undefined), which IC50 [1] is on record?
Answer: Its IC50 is 10 µM.

Question: For CC(=O)OCCN1C(=O)C2(CCN(CC3CCCCCCC3)CC2)c2ccccc21, which IC50 [2] is on record?
Answer: Its IC50 is over 10 µM.

Question: Which IC50 [1] does the source give for COC(=O)CN1C(=O)C2(CCN(c3ccc4c5c(cccc35)CC4)CC2)c2ccccc21 here?
Answer: The IC50 was 0.35 µM.

Question: Which IC50 [4] does the source give for COc1ccc2c(c1)N(CC1CC1)C(=O)C21CCN(CC2CCCCCCC2)CC1 here?
Answer: Its IC50 is over 10 µM.

Question: What about the IC50 [1] of the same compound?
Answer: The IC50 was over 10 µM.

Question: What about the IC50 [2] of the same compound?
Answer: Its IC50 is over 10 µM.

Question: And the IC50 [5]?
Answer: Its IC50 is 10 µM.

Question: What does the source list for Cc1cccc2c1C1(CCN(CC3CCCCCCC3)CC1)C(=O)N2C?
Answer: inhibition [3]: 81%; IC50 [2]: > 10 µM
